Several values for one entry are separate records, joined by “and”; a condition that tells them apart may be missing. Equal values may be shown once.
Legend:
[1] = system: spleen T cells, B cells and NK cells; assay: Immunophenotyping of splenocytes by flow cytometry; assay type: in vivo, BALB/c mice
Experimental: In general, the immunophenotyping technique consisted briefly of isolating cells from the peripheral blood or an organ (spleen or thymus), labeling them with a panel of antibodies specific for certain antigens of the membrane, and allowing to quantify the different populations. Analysis was performed by flow cytometry since antibodies were conjugated with a fluorochrome (Longbardi, Givan, A., 1994, Flow cytometry. First principles, Wiley-Liss Inc. New York.).
To immunophenotype immune cells, splenocytes were diluted to a concentration of […]. A total of 1×10^6 cells were distributed in a V-shape 96 well plate. A total of 7 wells were necessary for each sample. Plates were centrifuged 5 minutes at 1200 rpm. Supernatant was discarded and pellet were vortexed. Monoclonal antibodies were distributed in each wells according to the following set up:
The antibodies used are commercially available from Becton Dickinson (San Jose, Calif.). The cells were incubated with the antibodies for 30 minutes on ice, washed three times with D-PBS+1% BSA, spun at 1200 rpm for 5 minutes using a multichannel pipette, suspended in 1 ml of paraformaldehyde 2% (v/v), and transferred into flow cytometry tubes. Samples were analyzed using EPICS XL from Beckman Coulter flow cytometer. Results were expressed as percentage of the population expressing the specific surface antigen. Live population of cells were gated upon using forward scatter (FS) vs. side scatter (SS) to distinguish live cells from dead cells. A total of 10,000 gated cells were counted for statistical relevance. The FL1 band pass filter (set at 525 nm) was used to detect fluoroscein isothiocyanate (FITC) fluorescence. The FL2 band pass filter (set at 575 nm) was used to detect phycoerythrin (PE) fluorescence. The cursors are set accordingly to delineate the positive region. This region should be relative to 1% of the unstained control (cell control). Results are expressed as % of positive population expressing the specific surface antigens. Student's T test was performed between the control group and the treated group. The p value was calculated for statistical significance.

[2] = system: antibody production to keyhole limpet hemocyanin (KLH); assay: Humoral response to KLH immunization, immunodot blot; assay type: in vivo, BALB/c mice
Experimental: To perform KLH immunization, KLH was prepared in sterile D-PBS at a concentration of 150 μg in 0.1 ml. Animals were injected 0.1 ml of the preparation subcutaneously. After 15 days and just before sacrifice, a blood sample was collected from each mouse by cardiac puncture. Serum was obtained by centrifugation, aliquoted and frozen (−20° C.) until used.
Immunodot blot assay was used to assess antibody production. Hybond-ECL membrane was used in the immunodot blot assay. A volume of 2 μl of different concentrations (0, 10, 50, 250 μg/ml) of KLH antigen was placed on the dry membrane. Antigen dots were allowed to dry overnight at 4° C. Membrane was blocked with a dry milk solution for 1 hour. Two μl of the antiserum diluted ½, ¼, 1/16, 1/32, 1/64, 1/128 and undiluted was put on the blot and incubated for 1 hour. The membrane was washed with TES buffer solution 3 times. Goat anti-mouse IgG antibodies coupled with horseradish peroxidase were put on the blot and incubated for 1 hour. The membrane was washed with TBS buffer solution 3 times. […] Revelation time was 1 minute. The membrane was exposed for 18 hours to film.
The lower serum dilution where an antibody response is apparent was chosen to calculate antibody titer. The antibody titer corresponded to the inverse of the dilution. The titer was converted to log2, e.g., 8=3 (log2). Results were compared and Student's T test was performed between the control group and the treated group. The p value was calculated for statistical significance.
For this experiment, animals were treated with CPDS for 30 days, immunized subcutaneously with keyhole limpet hemocyanin (KLH) and treated an additional 15 days, at which point blood was collected for antibody detection. […] The antibody titer to KLH was 1/4.29 (2.13 log2) for control group and 1/2.00 (1.00 log2) for CPDS-treated group. The decrease in the antibody production may be partially related to the significant decrease in the B cell population observed in the immunophenotyping results. However, no loss of reactivity was observed from the lymphoproliferative assay when B cells were stimulated with LPS.

[3] = 30 days on CPDS diet vs group 1
[4] = Group 2, 30 days on CPDS diet, Mean ± S.D.
[5] = Group 2, 30 days on CPDS diet, individual mice
[6] = Group 6, 6 days on CPDS diet, Mean ± S.D.
[7] = Group 6, 6 days on CPDS diet, individual mice

O=C(O)c1ccc(SSc2ccc(C(=O)O)cn2)nc1 [CPDS, 6,6′-dithiodinicotinic acid]
B cells, variation (%) ([1]; 6 days on CPDS diet vs Group 5): −1.0%
CD4+, variation (%) ([1]; 6 days on CPDS diet vs Group 5): −8.5%
CD8+, variation (%) ([1]; 6 days on CPDS diet vs Group 5): −6.8%
NK cells, variation (%) ([1]; 6 days on CPDS diet vs Group 5): 43.5%
Ratio CD4/CD8, variation (%) ([1]; 6 days on CPDS diet vs Group 5): −1.8%
Total T cells, variation (%) ([1]; 6 days on CPDS diet vs Group 5): −8.0%
Immunophenotyping: B cells, effect of CPDS diet ([1]; 6 days, n=3): no significant effect
Immunophenotyping: Ratio CD4/CD8, effect of CPDS diet ([1]; 6 days, n=3): No effect
Immunophenotyping: T CD4+, effect of CPDS diet ([1]; 6 days, n=3): No effect
Immunophenotyping: T CD8+, effect of CPDS diet ([1]; 6 days, n=3): No effect
Immunophenotyping: Total T cells, effect of CPDS diet ([1]; 6 days, n=3): no significant effect
Immunophenotyping: NK cells, effect of CPDS diet ([1]; 6 days, n=3, arrow image = increase): tendency toward an increase
B cells, variation (%) [1, 3]: −19.9%
CD4+, variation (%) [1, 3]: −3.9%
CD8+, variation (%) [1, 3]: −11.0%
NK cells, variation (%) [1, 3]: 69.4%
Ratio CD4/CD8, variation (%) [1, 3]: 7.7%
Total T cells, variation (%) [1, 3]: −1.2%
Immunophenotyping: T CD4+, effect of CPDS diet ([1]; 30 days, n=8): No effect
Immunophenotyping: Total T cells, effect of CPDS diet ([1]; 30 days, n=8): No effect
Immunophenotyping: T CD8+, effect of CPDS diet ([1]; 30 days, n=8, arrow image = decrease): tendency to decrease
Immunophenotyping: Ratio CD4/CD8, effect of CPDS diet ([1]; 30 days, n=8, arrow image = increase): tendency
B cells (%) [1, 4]: 23.4 ± 2.0%
CD4+ (%) [1, 4]: 23.6 ± 2.3%
CD8+ (%) [1, 4]: 9.6 ± 1.2%
NK cells (%) [1, 4]: 6.9 ± 4.9%
Ratio CD4/CD8 [1, 4]: 2.49 ± 0.26
Total T cells (%) [1, 4]: 38.4 ± 2.9%
B cells (%) [1, 5]: 24.0% and 25.9% and 25.0% and 21.5% and 23.8% and 22.3% and 24.8% and 20.1%
CD4+ (%) [1, 5]: 21.7% (2×) and 24.0% and 28.3% and 25.7% and 23.2% and 22.2% and 22.1%
CD8+ (%) [1, 5]: 8.5% and 9.58% and 10.2% and 11.5% and 9.66% and 7.92% and 8.54% and 10.5%
NK cells (%) [1, 5]: 16.8% and 4.8% (2×) and 11.9% and 3.72% and 2.6% and 5.56% and 4.76%
Ratio CD4/CD8 [1, 5]: 2.55 and 2.27 and 2.35 and 2.46 and 2.66 and 2.93 and 2.60 and 2.1
Total T cells (%) [1, 5]: 35.8% and 36.8% and 39.6% and 44.6% and 39.8% and 37.5% and 36.0% and 37.4%
B cells (%) [1, 6]: 50.3 ± 0.5%
CD4+ (%) [1, 6]: 25.8 ± 2.3%
CD8+ (%) [1, 6]: 13.6 ± 0.9%
NK cells (%) [1, 6]: 11.9 ± 2.7%
Ratio CD4/CD8 [1, 6]: 1.90 ± 0.06
Total T cells (%) [1, 6]: 41.4 ± 2.5%
B cells (%) [1, 7]: 49.8% and 50.7% and 50.3%
CD4+ (%) [1, 7]: 26.4% and 23.3% and 27.8%
CD8+ (%) [1, 7]: 14.0% and 12.6% and 14.2%
NK cells (%) [1, 7]: 9.7% and 14.1% and 9.1%
Ratio CD4/CD8 [1, 7]: 1.89 and 1.85 and 1.96
Total T cells (%) [1, 7]: 42.8% and 38.6% and 42.9%
Humoral response to KLH, variation (%) ([2]; Group 4, 45 days on CPDS diet vs Group 3): −52.94%
Serum dilution (lowest with apparent antibody response to KLH) ([2]; Group 4, 45 days on CPDS diet, KLH s.c. at day 30, serum 15 days later, individual mice): 1/4 (4×) and 0 (4×)
dilution log 2 (antibody titer to KLH) ([2]; Group 4, 45 days on CPDS diet, Mean ± S.D.): 1.00 log 2 and 1.00 ± 1.07 log 2
dilution log 2 (antibody titer to KLH) ([2]; Group 4, 45 days on CPDS diet, individual mice): 2 log 2 (4×) and 0 log 2 (4×)

— patent publication US8163776B2, “Method of immunomodulation using thione-forming disulfides” (Grassetti family Trust, priority 2001, dated 2012)
